Measurements taken from the OPERA property sets (Mansouri et al. 2018).
Peptide text beside a SMILES is read from it.

In order of falling logP:
1. Clc1ccc(-c2ccc(Cl)c(Cl)c2Cl)c(Cl)c1Cl  7.31
2. COC(C)(C)CCCC(C)C/C=C/C(C)=C/C(=O)OC(C)C (stereo unspecified)  5.5
3. Clc1cc(Cl)c(-c2ccccc2)c(Cl)c1  5.47
4. CC(C)(C)C1(O)CCN2CC3c4ccccc4CCc4cccc(c43)C2C1 (stereo unspecified)  5.2
5. COc1cccc(N(C)C(=S)Oc2cccc(C(C)(C)C)c2)n1  5.18
6. C1=c2ccc3cccc4ccc(c2c43)CC1  4.92
7. Clc1cccc(-c2ccccc2)c1  4.58
8. CCC(C)(C)C(=O)OC1CC(C)C=C2C=CC(C)C(CCC(O)CC(O)CC(=O)O)C21 (stereo unspecified)  4.47
9. COc1cc(Cl)c(Nc2ccccc2CC(=O)O)c(Cl)c1  4.44
10. S=C=Nc1ccc2ccccc2c1  4.34
11. Cc1ccc(O)c(-n2nc3ccccc3n2)c1  4.31
12. CC(C)(C)C(O)C(Oc1ccc(-c2ccccc2)cc1)n1cncn1 (stereo unspecified)  4.16
13. CCSC(=O)N(CC(C)C)CC(C)C  4.15
14. Oc1cc(Cl)cc(Cl)c1Cl  3.84
15. CON(C)C(=O)Nc1ccc(OCCc2ccc(C)cc2)cc1  3.81
16. FC(F)(F)c1nc2c(Cl)cc(Cl)c(Cl)c2[nH]1  3.78
17. CCCCCc1ccncc1  3.75
18. CC12CCC3C(CCC4CC(=O)CCC43C)C1CCC2=O (stereo unspecified)  3.6
19. CC(C)OC(=O)Nc1cccc(Cl)c1  3.51
20. CN(C)/N=N/c1ccccc1I  3.5
21. CC(C)c1ccc(C(=O)O)cc1  3.4
22. c1ccc2nc3ccccc3cc2c1  3.4
23. CCCCC(N)Cc1ccccc1 (stereo unspecified)  3.36
24. COc1cccc(CNC(=O)C2(O)C(C)CC3C4CCC5=CC(=O)C=CC5(C)C4(F)C(O)CC32C)c1 (stereo unspecified)  3.27
25. c1ccc(-c2nc3ccccc3[nH]2)cc1  3.24
26. CC(=O)N(C)N=Nc1ccc(C)cc1  3.23
27. CCC1COC(Cn2cncn2)(c2ccc(Cl)cc2Cl)O1 (stereo unspecified)  3.1
28. O=C(c1ccccc1)c1ccc(O)cc1  3.07
29. CC(C)Oc1cccc(COC(=O)N(C)C)c1  3.03
30. C1CCCC1  3
31. CCOC(=O)C(=Cc1cccc(Cl)c1)C(C)=O  2.97
32. CCCCCCC1(c2ccncc2)CCC(=O)NC1=O (stereo unspecified)  2.94
33. CCCCC(C#N)(Cn1ccnc1)c1ccccc1 (stereo unspecified)  2.94
34. O=C(CN1CCCCC1)Nc1ccccc1Br  2.94
35. CCCCCCOc1ccc(S(N)(=O)=O)cc1  2.93
36. CC(C)(C)C(N)Cc1ccccc1 (stereo unspecified)  2.91
37. O=C1CN=C(c2ccc(F)cc2)c2cc(Cl)ccc2N1  2.9
38. C[Se]c1ccccc1  2.87
39. CC(C)SC(C)C  2.84
40. CC(C)c1ccccc1OCC(=O)O  2.84
41. CCc1ccsc1  2.82
42. CC(=O)Oc1cccc2ccccc12  2.78
43. COC(=O)CCCc1ccccc1  2.77
44. CC(=O)C(=Cc1ccc(Br)cc1)C(C)=O  2.75
45. COCCCc1ccccc1  2.7
46. Nc1ccc2nc3ccccc3cc2c1  2.62
47. c1ccc(Cc2ccncc2)cc1  2.62
48. CCC(=O)C1(c2cccc(OC(=O)C(C)(C)C)c2)CCN(C)CC1  2.59
49. CCc1ccc(O)cc1  2.58
50. O=S(=O)(Nc1ccccc1)c1ccccc1  2.58
51. O=[N+]([O-])c1ccccc1C(F)(F)F  2.58
52. CCCCOc1ccc(C(N)=O)cc1  2.48
53. CCOC(=O)c1ccc(O)cc1  2.47
54. O=C(CNC(=O)c1ccccc1)Oc1cccc([N+](=O)[O-])c1  2.46
55. O=[N+]([O-])c1cccc(Cl)c1  2.46
56. O=C(O)COc1ccc(Br)cc1  2.45
57. CCCOC(=O)c1ccc(N)cc1  2.43
58. CN(C)C(=O)Nc1cccc(C(F)(F)F)c1  2.42
59. NCCCCc1ccccc1  2.4
60. CCN1CC(C(O)C(CC2CCCCC2)NC(=O)C(Cc2cnc[nH]2)NC(=O)C(CC(=O)N2CC(OCOC)C(OCOC)C2)Cc2ccccc2)OC1=O (stereo unspecified)  2.31
61. CCOc1ccc2nccnc2c1  2.22
62. COc1nnc(OC)c2ccccc12  2.22
63. Nc1ccc(S(=O)(=O)c2ccc(F)cc2)cc1  2.17
64. CC(C)c1ccc(C(N)=O)cc1  2.14
65. CCCNC(C)C(=O)Nc1ccccc1C (stereo unspecified)  2.11
66. O=C(O)c1ccc(F)cc1  2.07
67. c1cnc2ccc3ncccc3c2c1  2.05
68. COC(=O)c1c[nH]c(C)c1  1.96
69. O=C(NC(=O)c1ccccc1O)c1ccccc1O  1.92
70. Cc1cc(C)nc(C)c1  1.88
71. O=C(O)CSc1ccccc1  1.88
72. O=[N+]([O-])C=Cc1cccc([N+](=O)[O-])c1  1.82
73. CCOc1ccc(O)cc1  1.81
74. CC(=NO)c1cccs1  1.81
75. COc1ccc(C(C)=O)cc1  1.74
76. COc1ccc(C)cc1N  1.74
77. CON(C)C(=O)Nc1ccc([N+](=O)[O-])cc1  1.74
78. CC1(C)OC(=O)c2ccccc21  1.73
79. O=[N+]([O-])c1ccccc1F  1.69
80. COc1cc2c(c(OC)c1O)-c1ccc(OC)c(=O)cc1[C@@H](NC(=O)C(F)(F)F)CC2  1.67
81. CC12CCC(=O)C=C1CCC1C3CCC(O)(C(=O)CO)C3(C)CC(O)C12F (stereo unspecified)  1.67
82. CCc1ccncc1  1.65
83. O=S1(=O)NC(C(F)(F)F)=Nc2cc(Cl)ccc21  1.65
84. CCBr  1.61
85. Cc1cnc2ccccc2n1  1.61
86. Cc1ccc(CO)cc1  1.58
87. C=CCC1(CC=C)C(=O)NC(=O)N(C)C1=O  1.55
88. O=C(O)c1cc([N+](=O)[O-])cc([N+](=O)[O-])c1  1.55
89. COc1ccc([N+](=O)[O-])cn1  1.55
90. CNCc1ccccc1  1.52
91. N#Cc1cccc(C(=O)O)c1  1.48
92. Clc1nnnn1-c1ccccc1  1.48
93. Cc1ccc2c(c1)nc(N)n2C  1.47
94. CC(C)=C1C(=O)OC2CC(C)C3C=CC(=O)C3(C)C(O)C12 (stereo unspecified)  1.47
95. ClCBr  1.41
96. Cc1cccc(N)c1  1.4
97. COc1cccc(C=O)c1O  1.37
98. CC(C)CCn1cnc([N+](=O)[O-])n1  1.34
99. NS(=O)(=O)c1nc2ccccc2s1  1.33
100. CC(C)(C)C(=O)NC(CO)C(O)c1ccc([N+](=O)[O-])cc1 (stereo unspecified)  1.33
101. C=CCNCCC  1.33
102. c1ccc2nccnc2c1  1.32
103. Cc1ccccc1N  1.32
104. CN1C(=O)c2ccccc2C1=O  1.31
105. CN(c1ccccn1)S(=O)(=O)c1ccc(N)cc1  1.3
106. O=C(C(=O)c1ccco1)c1ccco1  1.24
107. CC(=O)Oc1cccc(O)c1  1.23
108. CON(C)C(=O)Nc1ccc(C(C)=O)cc1  1.22
109. CC1=CC(=O)C=C(Br)C1=O  1.21
110. CC1=Nc2ccc(Cl)cc2S(=O)(=O)N1  1.2
111. CCOC(=O)CBr  1.12
112. COc1cccc(C(=O)N(C)C)c1  1
113. CC(C)C(Cl)C(=O)NC(N)=O (stereo unspecified)  1
114. CCOc1cc(N)ccc1C(=O)O  0.99
115. COc1ccc(N)cc1  0.95
116. O=C(O)c1ccc(CO)cc1  0.93
117. CC(Br)C(=O)O (stereo unspecified)  0.92
118. O=NN1CCCCCC1  0.92
119. NC(=O)CCc1ccccc1  0.91
120. Nc1ccc2nccnc2c1  0.9
121. OCCCCc1ccncc1  0.9
122. NC(=O)Nc1ccccc1F  0.88
123. Oc1ccccc1O  0.88
124. NC(=O)NC(=O)Cc1ccccc1  0.87
125. OCc1cccs1  0.87
126. NCCCCc1ccncc1  0.86
127. COC(=O)c1cc(O)c(O)c(O)c1  0.86
128. CC(O)CCC(=O)c1ccoc1 (stereo unspecified)  0.84
129. Oc1cnc2ccccc2n1  0.8
130. CC(Cl)(Cl)C(=O)O  0.78
131. N#Cc1ccc(C(O)C(CO)NC(=O)C(Cl)Cl)cc1 (stereo unspecified)  0.78
132. O=C(O)c1cccc([N+](=O)[O-])c1C(=O)O  0.75
133. CC1CN(N=O)CC(C)N1 (stereo unspecified)  0.73
134. CC(=O)Nc1cccc(O)c1  0.73
135. CS(=O)(=O)c1ccc2ncccc2c1  0.7
136. N#CC1CC1  0.68
137. NC(=S)c1cccnc1  0.67
138. NS(=O)(=O)c1ccc([N+](=O)[O-])cc1  0.64
139. O=[N+]([O-])c1cn[nH]c1  0.59
140. OCCCCl  0.5
141. CC(C)(C)OC(N)=O  0.48
142. O=C(O)CCCl  0.41
143. Nc1ccc(Cl)nn1  0.35
144. COC(=O)C1=CCCN(C)C1  0.35
145. CN(C)P(=O)(N(C)C)N(C)C  0.28
146. Cc1ncc[nH]1  0.24
147. O=C1CCCCCCN1  0.24
148. Cc1ccc(S(I)=C(N(C)C)N(C)C)c([N+](=O)[O-])c1 (stereo unspecified)  0.23
149. CNn1cc(C(=O)O)c(=O)c2cc(F)c(N3CCN(C)CC3)cc21  0.23
150. COc1cc(S(C)=O)ccc1-c1nc2nnccc2[nH]1 (stereo unspecified)  0.23
151. CCC#N  0.16
152. CC[C@H](C)[C@H](NC(C)=O)C(=O)N[C@H](C(N)=O)C(C)C (Ac-Ile-Val-NH2)  0.16
153. CNC(=O)OC  -0.06
154. CCC(=O)N(C)C  -0.11
155. NC(=O)C1CCCN1C(=O)C(Cc1cn(C(=O)OCc2ccccc2)cn1)NC(=O)C1CCC(=O)N1 (stereo unspecified)  -0.11
156. NC(=O)C(=Cc1ccccc1)C(N)=O  -0.13
157. CCOC(=O)n1cc(F)c(=O)[nH]c1=O  -0.17
158. CC(=O)CF  -0.39
159. O=[N+]([O-])c1nccn1CC(O)CF (stereo unspecified)  -0.52
160. C1OC1C1CO1 (stereo unspecified)  -0.52
161. CN(C)N=O  -0.57
162. OCC1OC(n2cnc3c(S)ncnc32)C(O)C1O (stereo unspecified)  -0.6
163. NNC(=O)c1ccnc([N+](=O)[O-])c1  -0.76
164. COP(=O)(NC(C)=O)SC (stereo unspecified)  -0.85
165. CN1C(=O)CCC1=O  -0.95
166. OC[C@H]1O[C@@H](Oc2ccc(O)cc2)[C@H](O)[C@@H](O)[C@@H]1O  -1.35
167. CNS(=O)(=O)c1ccc(S(I)=C(N(C)C)N(C)C)cc1 (stereo unspecified)  -1.4
168. Nc1nnco1  -1.44
169. O=c1nc[nH]c(=O)[nH]1  -1.87
170. NNC=O  -2.05
171. Nc1ncnc2c1ncn2[C@@H]1O[C@@H]2COP(=O)(O)O[C@H]2[C@H]1O  -2.96
